# Patent US8771944B2, “Use of micro-RNA as a biomarker of immunomodulatory drug activity” (Celgene Corporation, priority 2007, dated 2014)
# Columns and labels:
# [1] = tested on: CD34+ hematopoietic precursor cells; experiment: miRNA differential expression profiling (Ambion Bioarrays) in CD34+ cells; format: cell-based; conditions: CD34+ hematopoietic precursor model
# Text: A CD34^+ hematopoietic precursor cell line was utilized to examine miRNA biomarker expression upon treatment with an immunomodulatory compound. CD34^+ cells used in preclinical studies were purchased from a commercial supplier (Lonza), isolated by positive immunomagnetic selection from bone marrow. In clinical studies, CD34^+ cells can be purified by positive immunomagnetic selection or by flow cytometric immunosorting from bone marrow or peripheral blood using conventional methodologies.
# CD34^+ cells were expanded for 6 days in Iscove's DMEM media (Invitrogen) with 20% BIT serum substitute (StemCell Technologies) in the presence of SCF (100 ng/ml), Flt-3 ligand (100 ng/ml), and IL-3 (20 ng/ml) and then differentiated for 6 days in Iscove's/20% BIT containing SCF (50 ng/ml) and erythropoietin (2 U/ml) in the presence of 0.1% DMSO, 1 or 10 uM the immunomodulatory compound. Cells were grown in tissue culture and treated with the immunomodulatory compound according to methods known in the art. […]
# The expression array method detected two miRNAs that were regulated by administration of immunomodulatory agents in the CD34^+ hematopoietic precursor model.
# [2] = tested on: CD34+ cells; experiment: qRT-PCR of miR-130a and miR-146b in CD34+ cell cultures; format: cell-based; conditions: 6 days, 1 or 10 μm
# Method: CD34^+ cells were expanded for 6 days in Iscove's DMEM media (Invitrogen) with 20% BIT serum substitute (StemCell Technologies) in the presence of SCF (100 ng/ml), Flt-3 ligand (100 ng/ml), and IL-3 (20 ng/ml) and then differentiated for 6 days in Iscove's/20% BIT containing SCF (50 ng/ml) and erythropoietin (2 U/ml) in the presence of 0.1% DMSO, 1 or 10 uM the immunomodulatory compound. Cells were grown in tissue culture and treated with the immunomodulatory compound according to methods known in the art.
# To quantitate selected miRNAs with qRT-PCR, purified miRNA was analyzed using a TaqmanR microRNA Assay (Applied Biosystems). Five ng of purified miRNA was subjected to qRT-PCR with TaqmanR miRNA assay according to manufacturers instructions. Alternatively, the procedure may be achieved by using miRNA-specific reverse transcription and PCR primers with standard buffers, reagents, and methods.
# Levels of miR-130a and miR-146b were determined using qRT-PCR as described above.
# [3] = tested on: Namalwa cells; experiment: miRNA expression profile / qRT-PCR of miR-143 and miR-145 in Namalwa cells; format: cell-based; conditions: 10 μM, 6 or 24 hours, FIG. 2
# Method: An experiment similar to described above in Sections 6.1-6.5 was performed with a Namalwa lymphoma cell line model. The Namalwa Burkitt's lymphoma cell line was purchased from ATCC and grown in RPMI with 10% fetal bovine serum according to standard tissue culture methods known in the art.
# Namalwa cells grown as above were treated for 6 or 24 hours with either 0.1% DMSO, 10 μM 1,3-dioxo-2-(2,6-dioxopiperidin-3-yl)-4-aminoisoindoline, or the HDAC inhibitor TSA 1 μM. Cells were harvested at indicated times and then miRNA was purified as outlined in previous sections.
# miRNA expression profiles in Namalwa cells treated with immunomodulatory compounds were generated using methods similar to that described in Section 6.3.
# Levels of miR-145 and miR-143 were determined using qRT-PCR. Purified miRNA was analyzed using a TaqmanR microRNA expression assay (Applied Biosystems). Five ng of purified miRNA was subjected to qRT-PCR with TaqmanR miRNA assays for miR-143 and miR-145 according to manufacturers instructions. The procedure may be achieved by using miRNA reverse transcription and PCR primers with standard buffers, reagents, and methods.
# [4] = tested on: Namalwa cells; experiment: Agilent miRNA array v2, lenalidomide-treated Namalwa cells; format: cell-based, human; conditions: for miR-143 Fold Increase / miR-145 Fold Increase: Namalwa cells
# Method: (§1) Additional assays were performed to determine the effects of lenalidomide (1-oxo-2-(2,6-dioxopiperidin-3-yl)-4-aminoisoindoline) administration to various cell cultures on the expression of miRNAs. The miRNAs were detected using the Agilent miRNA array v2, which contains probes for 760 human miRNAs. […] was isolated using the Qiagen miRNeasy kit, total RNA (100 ng) was dephosphorylated and ligated with pCp-Cy3. Labeled RNA was purified and hybridized to Agilent miRNA arrays.
# Namalwa cells: Lenalidomide was added to Namalwa cells at a concentration of 0.1 μm, 1 μm, or 10 μm. The miRNA levels were measured at 24 and 48 hours after addition of the lenalidomide. The results with this array confirmed the upregulation of miR-143 and miR-145 in Namalwa cells in a dose-dependent response to administration of 1-oxo-2-(2,6-dioxopiperidin-3-yl)-4-aminoisoindoline (Table 2).
# [5] = tested on: H929 cells; experiment: Agilent miRNA array v2, lenalidomide-treated H929 cells; format: cell-based, human; conditions: for miR-204 Fold Increase / miR-424 Fold Increase / miR-503 Fold Increase: H929 cells
# Method: as §1
# [6] = tested on: HL60 cells; experiment: Agilent miRNA array v2, lenalidomide-treated HL60 cells; format: cell-based, human; conditions: for miR-99b Fold Increase / miR-125a Fold Increase / miR-143 Fold Increase / miR-145 Fold Increase / miR-146b Fold Increase: HL-60 cells
# Method: as §1
# HL60 cells: The addition of lenalidomide (1-oxo-2-(2,6-dioxopiperidin-3-yl)-4-aminoisoindoline) to a cell culture from an acute myelogenous leukemia (AML) cell line (HL60) was also shown to upregulate a number of miRNAs.
# [7] = cited from earlier work
# [8] = Namalwa cells, 0.1, 1 or 10 μm, 24 and 48 hours, dose-dependent response
# [9] = 24 hour treatment, 0.1 uM lenalidomide
# [10] = 24 hour treatment, 1 uM lenalidomide
# [11] = 24 hour treatment, 10 uM lenalidomide
# [12] = 48 hour treatment, 0.1 uM lenalidomide
# [13] = 48 hour treatment, 1 uM lenalidomide
# [14] = 24 hour treatment, Lenalidomide 0.1 uM
# [15] = 24 hour treatment, Lenalidomide 1.0 uM
# [16] = 24 hour treatment, Lenalidomide 10.0 uM
# [17] = 48 hour treatment, Lenalidomide 0.1 uM
# [18] = 48 hour treatment, Lenalidomide 1.0 uM
# [19] = 48 hour treatment, Lenalidomide 10.0 uM
# [20] = H929 multiple myeloma cell line, 24 and 48 hours
# [21] = HL60 acute myelogenous leukemia cell line
# [22] = HL60 cells, dose dependent manner at both 24 and 48 hours
smiles,measurement,setting,value
"Nc1cccc2c1C(=O)N(C1CCC(=O)NC1=O)C2=O (stereo not drawn) [1,3-dioxo-2-(2,6-dioxopiperidin-3-yl)-4-aminoisoindoline]",miR-130a expression change (expression array),[1],upregulated
same,miR-146b expression change (expression array),[1],upregulated
same,miR-146b expression (qRT-PCR) compared to DMSO control,[2]; FIG. 1A,upregulation
same,miR-130a expression (qRT-PCR) compared to DMSO control,[2]; FIG. 1B,upregulation
same,miR-143 expression change,[3],upregulation
same,miR-145 expression change,[3],upregulation
"Nc1cccc2c1CN(C1CCC(=O)NC1=O)C2=O (stereo not drawn) [lenalidomide, 1-oxo-2-(2,6-dioxopiperidin-3-yl)-4-aminoisoindoline]",miR-143 expression change,[4]; [8],upregulation
same,miR-145 expression change,[4]; [8],upregulation
same,miR-143 Fold Increase,[4]; [9],2.29 fold
same,miR-145 Fold Increase,[4]; [9],2.34 fold
same,miR-143 Fold Increase,[4]; [10],3.81 fold
same,miR-145 Fold Increase,[4]; [10],4.16 fold
same,miR-143 Fold Increase,[4]; [11],4.69 fold
same,miR-145 Fold Increase,[4]; [11],4.96 fold
same,miR-143 Fold Increase,[4]; [12],2.31 fold
same,miR-145 Fold Increase,[4]; [12],2.53 fold
same,miR-143 Fold Increase,[4]; [13],4.68 fold
same,miR-145 Fold Increase,[4]; [13],5.12 fold
same,miR-204 Fold Increase,[5]; [14],1.75 fold
same,miR-424 Fold Increase,[5]; [14],1.50 fold
same,miR-503 Fold Increase,[5]; [14],1.61 fold
same,miR-204 Fold Increase,[5]; [15],2.20 fold
same,miR-424 Fold Increase,[5]; [15],2.08 fold
same,miR-503 Fold Increase,[5]; [15],2.37 fold
same,miR-204 Fold Increase,[5]; [16],2.00 fold
same,miR-424 Fold Increase,[5]; [16],2.10 fold
same,miR-503 Fold Increase,[5]; [16],2.44 fold
same,miR-204 Fold Increase,[5]; [17],2.61 fold
same,miR-424 Fold Increase,[5]; [17],1.71 fold
same,miR-503 Fold Increase,[5]; [17],1.89 fold
same,miR-204 Fold Increase,[5]; [18],4.30 fold
same,miR-424 Fold Increase,[5]; [18],3.08 fold
same,miR-503 Fold Increase,[5]; [18],3.80 fold
same,miR-204 Fold Increase,[5]; [19],4.45 fold
same,miR-424 Fold Increase,[5]; [19],3.36 fold
same,miR-503 Fold Increase,[5]; [19],4.05 fold
same,miR-204 expression change,[5]; [20],increase in expression in a dose dependent manner
same,miR-424 expression change,[5]; [20],increase in expression in a dose dependent manner
same,miR-503 expression change,[5]; [20],increase in expression in a dose dependent manner
same,miR-143 expression change,[6]; [21],upregulated
same,miR-145 expression change,[6]; [21],upregulated
same,miR-99b expression change,[6]; [22],upregulated
same,miR-125a expression change,[6]; [22],upregulated
same,miR-146b expression change,[6]; [22],upregulated
same,miR-99b Fold Increase,[6]; [14],1.81 fold
same,miR-125a Fold Increase,[6]; [14],1.56 fold
same,miR-143 Fold Increase,[6]; [14],1.42 fold
same,miR-145 Fold Increase,[6]; [14],1.33 fold
same,miR-146b Fold Increase,[6]; [14],2.28 fold
same,miR-99b Fold Increase,[6]; [15],2.37 fold
same,miR-125a Fold Increase,[6]; [15],1.93 fold
same,miR-143 Fold Increase,[6]; [15],1.56 fold
same,miR-145 Fold Increase,[6]; [15],1.62 fold
same,miR-146b Fold Increase,[6]; [15],2.99 fold
same,miR-99b Fold Increase,[6]; [16],2.53 fold
same,miR-125a Fold Increase,[6]; [16],2.04 fold
same,miR-143 Fold Increase,[6]; [16],1.63 fold
same,miR-145 Fold Increase,[6]; [16],1.77 fold
same,miR-146b Fold Increase,[6]; [16],3.29 fold
same,miR-99b Fold Increase,[6]; [17],1.99 fold
same,miR-125a Fold Increase,[6]; [17],1.72 fold
same,miR-143 Fold Increase,[6]; [17],1.96 fold
same,miR-145 Fold Increase,[6]; [17],1.89 fold
same,miR-146b Fold Increase,[6]; [17],4.38 fold
same,miR-99b Fold Increase,[6]; [18],2.45 fold
same,miR-125a Fold Increase,[6]; [18],2.05 fold
same,miR-143 Fold Increase,[6]; [18],2.40 fold
same,miR-145 Fold Increase,[6]; [18],2.27 fold
same,miR-146b Fold Increase,[6]; [18],7.16 fold
same,miR-99b Fold Increase,[6]; [19],2.69 fold
same,miR-125a Fold Increase,[6]; [19],2.24 fold
same,miR-143 Fold Increase,[6]; [19],2.25 fold
same,miR-145 Fold Increase,[6]; [19],2.34 fold
same,miR-146b Fold Increase,[6]; [19],7.07 fold
"Nc1cccc2c1CN(C1CCC(=O)NC1=O)C2=O (stereo not drawn) [Form E, 3-(4-amino-1-oxo-1,3 dihydro-isoindol-2-yl)-piperidene-2,6-dione]",stability of polymorphic form in aqueous solvent systems,[7],most stable form
